For data set [1], the system named is Mus musculus. Nature of the data set: Anti-necroptotic activity in TNFalpha/Z-VAD-FMK induced SIRS male C57BL/6J mouse model assessed as protection from hypothermia at 2.5 to 10 mg/kg, po pre-administered with compound via gavage for 2 hrs followed by […] of Z-VAD-FMK stimulation for 15 mins with subsequent TNF-alpha stimulation for 1 hrs and re-current […] of Z-VAD-FMK stimulation and measured after 8 hrs post SIRS induction. Particulars: dose 2.5-10 mg/kg, time 10.0 hrs. The class given is functional, organism-based.

Data set [2] deals with Mus musculus. Nature of the data set: Anti-necroptotic activity in TNFalpha/Z-VAD-FMK induced SIRS male C57BL/6J mouse model assessed as reduction in IL6 in spleen at 5 to 10 mg/kg, po pre-administered with compound via gavage for 2 hrs followed by […] of Z-VAD-FMK stimulation for 15 mins with subsequent TNF-alpha stimulation for 1 hrs and re-current […] of Z-VAD-FMK stimulation and measured after 8 hrs post SIRS induction by ELISA. The class given is functional, organism-based. The settings on record: dose 5-10 mg/kg, time 10.0 hrs.

Data set [3] has as its system HT-29. Nature of the data set: Anti-necroptotic activity in TSZ-induced human HT-29 cells assessed as cell survival at 10 uM measured after 12 hrs by Live-cell super-resolution panoramic microscopic analysis (reference value: 8 hrs). The class given is functional.
The subject of data set [4] is L929. Nature of the data set: Anti-necroptotic activity in TZ-induced mouse L929 cells assessed as increase in cell viability preincubated with compound followed by Z-VAD-FMK and mTNFalpha stimulation and measured after 4 hrs by CellTiter-Lumi luminescent cell viability assay. It counts as functional, cell-based. The settings on record: dose 0.625-10 µM.
The subject of data set [5] is HT-29. Nature of the data set: Downregulation of MLKL protein level in human HT-29 cells at 6 uM preincubated with MLN4924 for 2 hrs followed by compound addition and measured after 9 hrs by Western blot analysis. The class given is functional, cell-based.
The nature of data set [6]: Acute toxicity in male C57BL/6J mouse assessed as hemorrhage in stomach at 2 g/Kg, IG measured after 72 hrs by H and E staining based analysis. It counts as tissue-based. The settings on record: in vivo, po, 2000 mg/kg.
Data set [7] has as its system HT-29. Kind of data set: Downregulation of EGFR expression in human HT-29 cells at 0.75 to 6 uM incubated for 9 hrs by Western blot analysis. The class given is functional, cell-based. Particulars: dose 0.75-6 µM. (A western blot detects proteins with antibodies after separation by electrophoresis.)
Data set [8] relates to Mus musculus. Kind of data set: Anti-necroptotic activity in TNFalpha/Z-VAD-FMK induced SIRS male C57BL/6J mouse model assessed as survival rate at 5 mg/kg, po pre-administered with compound via gavage for 2 hrs followed by […] of Z-VAD-FMK stimulation for 15 mins with subsequent TNF-alpha stimulation for 1 hrs and re-current […] of Z-VAD-FMK stimulation and measured after 8 hrs post SIRS induction relative to control. It counts as functional. The settings on record: time 10 hrs.

Data set [9] concerns the target Heat shock protein HSP90 (Homo sapiens) (UniProt P07900+P08238). Nature of the data set: Inhibition of HSP90 in TSZ-induced human HT-29 cells assessed as reduction in EGFR protein level at 10 uM preincubated with compound followed by Z-VAD-FMK, SM164 and TNFalpha stimulation and measured after 6 hrs by Western blot analysis. The class given is cell-based.
Data set [10] has as its system HT-29. Nature of the data set: Anti-apoptotic activity in TS-induced human HT-29 cells assessed as increase in cell viability at 1.25 to 20 uM preincubated with compound followed by TNF-alpha and SM164 addition and measured after 36 hrs by CellTiter-Lumi luminescent cell viability assay. The class given is functional, cell-based. The settings on record: dose 1.25-20 µM.

Data set [11] can be described thus: Cmax in Sprague-Dawley rat at 10 mg/kg, IG measured after 24 hrs by LC-MS/MS analysis. The settings on record: in vivo, po. The class given is ADME, organism-based.
In data set [12] the test system is Mus musculus. Kind of data set: Anti-necroptotic activity in TNFalpha/Z-VAD-FMK induced SIRS male C57BL/6J mouse model assessed as reduction in IL6 in serum pre-administered orally with compound via gavage for 2 hrs followed by […] of Z-VAD-FMK stimulation for 15 mins with subsequent TNF-alpha stimulation for 1 hrs and re-current […] of Z-VAD-FMK stimulation and measured after 8 hrs post SIRS induction by ELISA. It counts as functional, organism-based. The settings on record: dose 2.5-10 mg/kg, route po, time 10.0 hrs. Background: An ELISA detects its analyte on a solid surface through an enzyme-linked reagent.

Data set [13] has as its system HT-29. Nature of the data set: Downregulation of MLKL protein level in human HT-29 cells at 6 uM preincubated with MG132 for 2 hrs followed by compound addition and measured after 9 hrs by Western blot analysis. It counts as functional, cell-based.
Data set [14] has as its system HT-29. Kind of data set: Anti-apoptotic activity in TC-induced human HT-29 cells assessed as increase in cell viability at 1.25 to 20 uM preincubated with compound followed by TNF-alpha and cycloheximide addition and measured after 24 hrs by CellTiter-Lumi luminescent cell viability assay. Particulars: dose 1.25-20 µM. It counts as functional, cell-based.
Data set [15] deals with T1, Receptor-interacting serine/threonine-protein kinase 1 (Homo sapiens) (UniProt Q13546).
T1 sequence (whole entry): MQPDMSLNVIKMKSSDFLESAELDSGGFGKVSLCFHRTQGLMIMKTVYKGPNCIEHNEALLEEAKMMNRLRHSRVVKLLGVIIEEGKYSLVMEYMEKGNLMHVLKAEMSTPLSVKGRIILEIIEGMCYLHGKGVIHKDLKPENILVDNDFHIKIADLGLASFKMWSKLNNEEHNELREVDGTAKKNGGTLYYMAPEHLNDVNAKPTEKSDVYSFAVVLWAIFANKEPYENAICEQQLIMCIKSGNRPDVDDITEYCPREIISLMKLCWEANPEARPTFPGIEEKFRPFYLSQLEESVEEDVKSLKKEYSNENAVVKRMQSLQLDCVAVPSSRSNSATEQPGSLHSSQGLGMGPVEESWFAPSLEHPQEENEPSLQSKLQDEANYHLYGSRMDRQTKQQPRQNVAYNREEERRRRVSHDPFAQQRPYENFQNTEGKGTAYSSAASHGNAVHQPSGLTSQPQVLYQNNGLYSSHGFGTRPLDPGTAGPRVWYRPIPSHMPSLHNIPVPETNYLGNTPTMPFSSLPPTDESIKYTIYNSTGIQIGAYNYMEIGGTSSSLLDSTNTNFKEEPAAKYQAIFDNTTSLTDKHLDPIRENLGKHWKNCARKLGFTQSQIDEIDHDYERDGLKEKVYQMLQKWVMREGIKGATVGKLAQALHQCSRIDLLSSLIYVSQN
Kind of data set: Inhibition of RIPK1 activation in TSZ-induced human HT-29 cells at 10 uM preincubated with compound followed by Z-VAD-FMK, SM164 and TNFalpha stimulation and measured after 6 hrs by Western blot analysis. The class given is cell-based.

Data set [16] concerns HT-29. Nature of the data set: Downregulation of MLKL protein level in human HT-29 cells incubated for 9 hrs by Western blot analysis. Particulars: dose 0.75-6 µM. The class given is functional, cell-based.
Data set [17] is described as follows: Acute toxicity in male C57BL/6J mouse assessed as structural changes in heart at 2 g/Kg, IG measured after 72 hrs by H and E staining based analysis. It counts as tissue-based. The settings on record: in vivo, po, 2000 mg/kg.
Data set [18] relates to HT-29. Nature of the data set: Downregulation of RIPK3 protein level in human HT-29 cells at 3 to 6 uM incubated for 9 hrs by Western blot analysis. It counts as functional, cell-based. The settings on record: dose 3-6 µM.
For data set [19], the system named is Mus musculus. Kind of data set: Anti-necroptotic activity in TNFalpha/Z-VAD-FMK induced SIRS male C57BL/6J mouse model assessed as protection from death at 2.5 to 10 mg/kg, po pre-administered with compound via gavage for 2 hrs followed by […] of Z-VAD-FMK stimulation for 15 mins with subsequent TNF-alpha stimulation for 1 hrs and re-current […] of Z-VAD-FMK stimulation and measured after 8 hrs post SIRS induction. The settings on record: dose 2.5-10 mg/kg, time 10.0 hrs. The class given is functional, organism-based.

The nature of data set [20]: Acute toxicity in male C57BL/6J mouse assessed as structural changes in stomach at 2 g/Kg, IG measured after 72 hrs by H and E staining based analysis. It counts as tissue-based. The settings on record: in vivo, po, 2000 mg/kg.

Active and inactive are the calls of the source. The rule behind the calls is not given here.

Usually Cmax stands for the highest concentration seen after dosing. For `Cn1ccc(-c2ccc(NC(=O)[C@]34CCC(C)(C)C[C@H]3[C@H]3C(=O)C=C5[C@@]6(C)C=C(C#N)C(=O)C(C)(C)[C@@H]6CC[C@@]5(C)[C@]3(C)CC4)cc2)n1`, the outcome in data set [1], in data set [2], in [5], in data set [7], in data set [13] and in data set [19] was Active. For the same compound, in data set [3], the Survival turned out to be 9 h. Besides, the Activity entry in [4] was “Dose-dependent-effect”; in data set [6], “Non-toxic”; in data set [12], “Dose-dependent-effect”; in data set [16], “Dose-dependent-effect”; in [17], “Non-toxic”; in data set [18] it was “Active; Significant Effect Observed”. Moreover, the Activity result in data set [20] is reported as “Non-toxic”. Also, the survival at 5 mg/kg in data set [8] amounted to 58%. The inhibition result in [9] and in [15] was “Active” in each case. Also, the outcome in [10] and in data set [14] was inactive. Moreover, the maximum concentration (Cmax) in [11] was 0.0651 µg/mL.

The values above are taken from ChEMBL document CHEMBL6177981, “Bardoxolone Derivatives as Novel Pseudo-Natural Necroptosis Inhibitors by Destabilizing HSP90 Client Proteins” (J Med Chem, 2025).
